Legend:
[1] = biological target: T1, recombinant integrin α4β7 (Homo sapiens, UniProt P13612+P26010, DEL724-798); assay: Integrin α4β7—MAdCAM-1 ELISA competition assay; format: binding; settings: read-out: ELISA α4β7 Assay IC50
T1 construct: purchased R&D Systems 5397-A3-050
T1 sequence (P13612 34-970 limits assumed): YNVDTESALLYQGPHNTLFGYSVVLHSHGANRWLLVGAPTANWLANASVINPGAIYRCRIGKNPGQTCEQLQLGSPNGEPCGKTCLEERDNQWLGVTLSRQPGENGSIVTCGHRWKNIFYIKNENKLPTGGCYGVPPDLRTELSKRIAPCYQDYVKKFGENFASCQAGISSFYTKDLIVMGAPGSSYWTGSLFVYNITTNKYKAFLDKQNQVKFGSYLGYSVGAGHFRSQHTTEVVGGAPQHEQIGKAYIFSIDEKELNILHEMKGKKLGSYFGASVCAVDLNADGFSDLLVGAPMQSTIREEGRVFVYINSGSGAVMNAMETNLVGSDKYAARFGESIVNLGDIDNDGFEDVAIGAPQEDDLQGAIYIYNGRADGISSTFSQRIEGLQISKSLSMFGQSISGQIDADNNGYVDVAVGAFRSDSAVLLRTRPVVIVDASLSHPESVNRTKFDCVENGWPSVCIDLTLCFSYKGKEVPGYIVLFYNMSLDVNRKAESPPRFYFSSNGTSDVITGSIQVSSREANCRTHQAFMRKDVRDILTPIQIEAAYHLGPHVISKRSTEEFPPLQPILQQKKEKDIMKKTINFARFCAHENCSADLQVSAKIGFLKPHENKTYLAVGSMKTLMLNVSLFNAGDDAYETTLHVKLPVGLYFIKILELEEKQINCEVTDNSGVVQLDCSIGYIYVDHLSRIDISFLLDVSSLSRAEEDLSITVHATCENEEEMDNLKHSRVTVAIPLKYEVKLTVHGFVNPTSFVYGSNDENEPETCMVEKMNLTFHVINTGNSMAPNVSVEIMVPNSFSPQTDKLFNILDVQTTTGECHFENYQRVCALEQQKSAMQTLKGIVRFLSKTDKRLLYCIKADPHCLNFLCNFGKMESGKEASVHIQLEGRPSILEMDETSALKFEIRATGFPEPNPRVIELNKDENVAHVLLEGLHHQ
T1 sequence (P26010 20-723 limits assumed): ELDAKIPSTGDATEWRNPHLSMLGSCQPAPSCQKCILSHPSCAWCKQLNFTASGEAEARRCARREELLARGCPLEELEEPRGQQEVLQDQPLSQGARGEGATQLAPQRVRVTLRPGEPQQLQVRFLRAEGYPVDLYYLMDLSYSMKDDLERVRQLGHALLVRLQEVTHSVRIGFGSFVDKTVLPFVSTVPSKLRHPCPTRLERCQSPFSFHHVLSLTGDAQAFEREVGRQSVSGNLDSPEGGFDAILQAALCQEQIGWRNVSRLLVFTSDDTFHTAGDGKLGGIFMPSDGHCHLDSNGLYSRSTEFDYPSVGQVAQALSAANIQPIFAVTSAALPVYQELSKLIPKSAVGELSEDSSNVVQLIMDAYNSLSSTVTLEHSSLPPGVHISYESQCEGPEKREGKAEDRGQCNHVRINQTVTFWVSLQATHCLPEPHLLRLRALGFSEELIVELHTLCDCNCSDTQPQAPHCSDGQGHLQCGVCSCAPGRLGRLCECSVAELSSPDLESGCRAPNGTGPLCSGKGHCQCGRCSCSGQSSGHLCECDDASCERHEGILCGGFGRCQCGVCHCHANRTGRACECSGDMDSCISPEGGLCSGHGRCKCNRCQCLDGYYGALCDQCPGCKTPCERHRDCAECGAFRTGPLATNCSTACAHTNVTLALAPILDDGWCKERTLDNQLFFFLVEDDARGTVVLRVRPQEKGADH

[2] = biological target: T2, recombinant integrin α4β1 (Homo sapiens, UniProt P05556+P13612); assay: Integrin α4β1—VCAM-1 competition ELISA; format: binding; settings: for ELISA Assay Ratio β1/β7: ratio of ELISA IC50s, α4β1 over α4β7; for IC50: read-out: ELISA α4β1 Assay IC50
T2 construct: purchased R&D Systems 5397-A3-050
Outline: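 Compound dilutions added to coated plate and shaken at room temperature for 2 h (300 rpm) to binding equilibrium. Wash buffer: 50 mM Tris, 100 mM NaCl, 1 mM MnCl2, 0.05% Tween. Bound Fc-tagged ligand detected with anti-human IgG Fc-HRP, 1 h at room temperature.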

[3] = biological target: T3, integrin α4β1 (RAMOS human cells adhering to VCAM-1) (Homo sapiens, UniProt P05556+P13612); assay: Integrin α4β1-VCAM cell adhesion assay (RAMOS cells); format: cell-based; settings: for IC50: Ramos cells adhering to VCAM, read-out: Ramos Adhesion α4β1/VCAM IC50; for Ratio Ramos/RPMI: ratio of cell adhesion IC50s, Ramos α4β1/VCAM over RPMI8866 α4β7/MAdCAM
T3 construct: Ramos cells, which express integrin α4β1; host or cells: RAMOS
Outline: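 Human RAMOS cells loaded with calcein ([…] in PBS, 37° C, 30 min) allowed to adhere to VCAM-1-coated wells blocked with 1% milk. After PBS washes, adherent-cell fluorescence measured and cell-free well background subtracted to build dose-response.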

T3 sequence (P13612 34-1032): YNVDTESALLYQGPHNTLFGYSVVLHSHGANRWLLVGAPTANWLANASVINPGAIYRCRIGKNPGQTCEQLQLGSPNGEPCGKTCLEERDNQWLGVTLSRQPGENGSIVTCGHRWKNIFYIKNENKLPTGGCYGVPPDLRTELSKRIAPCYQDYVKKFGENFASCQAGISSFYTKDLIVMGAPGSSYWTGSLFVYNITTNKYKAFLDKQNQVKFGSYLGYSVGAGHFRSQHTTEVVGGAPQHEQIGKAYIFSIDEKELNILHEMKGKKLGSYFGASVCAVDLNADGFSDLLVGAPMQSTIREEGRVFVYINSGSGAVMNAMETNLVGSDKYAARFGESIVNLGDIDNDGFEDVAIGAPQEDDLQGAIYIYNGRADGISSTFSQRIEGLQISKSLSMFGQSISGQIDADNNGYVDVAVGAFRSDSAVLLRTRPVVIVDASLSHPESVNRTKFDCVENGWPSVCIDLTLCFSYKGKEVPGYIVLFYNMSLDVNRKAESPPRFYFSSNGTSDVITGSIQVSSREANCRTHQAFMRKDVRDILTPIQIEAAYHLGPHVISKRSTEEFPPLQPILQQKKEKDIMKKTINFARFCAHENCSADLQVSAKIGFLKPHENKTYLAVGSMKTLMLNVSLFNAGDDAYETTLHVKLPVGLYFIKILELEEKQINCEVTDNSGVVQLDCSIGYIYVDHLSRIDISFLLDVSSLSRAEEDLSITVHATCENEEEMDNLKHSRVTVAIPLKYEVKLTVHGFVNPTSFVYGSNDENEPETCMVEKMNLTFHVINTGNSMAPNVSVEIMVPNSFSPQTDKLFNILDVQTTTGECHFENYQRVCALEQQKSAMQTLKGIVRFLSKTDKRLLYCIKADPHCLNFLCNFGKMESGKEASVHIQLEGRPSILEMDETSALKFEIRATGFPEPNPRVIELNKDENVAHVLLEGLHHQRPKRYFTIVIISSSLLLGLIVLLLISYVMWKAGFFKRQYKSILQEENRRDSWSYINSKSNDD
T3 sequence (P05556 21-798): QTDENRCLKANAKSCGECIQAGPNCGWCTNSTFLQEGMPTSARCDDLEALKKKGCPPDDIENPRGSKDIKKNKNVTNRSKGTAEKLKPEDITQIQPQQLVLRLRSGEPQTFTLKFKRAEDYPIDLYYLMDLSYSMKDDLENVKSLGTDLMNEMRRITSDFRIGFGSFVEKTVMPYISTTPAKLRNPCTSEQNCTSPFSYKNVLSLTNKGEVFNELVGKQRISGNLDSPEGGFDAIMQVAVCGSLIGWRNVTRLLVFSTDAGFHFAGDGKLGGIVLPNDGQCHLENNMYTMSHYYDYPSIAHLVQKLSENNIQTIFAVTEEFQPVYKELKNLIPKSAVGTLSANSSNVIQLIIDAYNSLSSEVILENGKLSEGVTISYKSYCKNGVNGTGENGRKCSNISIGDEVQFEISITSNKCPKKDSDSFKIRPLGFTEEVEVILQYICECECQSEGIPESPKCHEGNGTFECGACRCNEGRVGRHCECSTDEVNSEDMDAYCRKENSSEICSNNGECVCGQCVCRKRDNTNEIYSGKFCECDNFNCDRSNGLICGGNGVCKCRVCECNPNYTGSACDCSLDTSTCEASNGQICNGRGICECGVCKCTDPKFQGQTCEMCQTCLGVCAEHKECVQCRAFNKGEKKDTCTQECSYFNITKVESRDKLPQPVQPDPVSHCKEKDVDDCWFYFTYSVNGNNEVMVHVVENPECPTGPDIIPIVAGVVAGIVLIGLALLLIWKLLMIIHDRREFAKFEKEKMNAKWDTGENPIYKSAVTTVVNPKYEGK
T2 sequence (P05556 21-728 limits assumed, one chain of several): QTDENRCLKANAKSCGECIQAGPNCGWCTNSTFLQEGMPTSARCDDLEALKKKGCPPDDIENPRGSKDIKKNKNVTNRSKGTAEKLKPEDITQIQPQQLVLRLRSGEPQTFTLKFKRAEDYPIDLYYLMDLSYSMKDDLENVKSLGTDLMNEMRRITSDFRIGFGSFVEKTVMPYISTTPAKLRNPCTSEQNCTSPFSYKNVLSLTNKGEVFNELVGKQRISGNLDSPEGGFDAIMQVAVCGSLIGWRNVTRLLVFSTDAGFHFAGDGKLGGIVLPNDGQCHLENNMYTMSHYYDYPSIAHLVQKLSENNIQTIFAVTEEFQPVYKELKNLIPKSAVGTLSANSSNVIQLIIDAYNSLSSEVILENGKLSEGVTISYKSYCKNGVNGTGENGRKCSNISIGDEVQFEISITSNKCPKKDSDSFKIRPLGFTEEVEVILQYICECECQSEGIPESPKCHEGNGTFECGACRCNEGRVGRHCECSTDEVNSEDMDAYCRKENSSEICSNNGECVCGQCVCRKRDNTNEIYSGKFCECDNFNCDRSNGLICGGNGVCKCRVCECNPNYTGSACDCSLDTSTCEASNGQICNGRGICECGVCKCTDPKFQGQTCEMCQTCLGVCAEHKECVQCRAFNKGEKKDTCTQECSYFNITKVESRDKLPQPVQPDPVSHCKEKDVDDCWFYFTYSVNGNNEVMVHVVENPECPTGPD

CC(C)C[C@@H]1NC(=O)c2ccc(-c3ccc(N4CCN(C(=O)C56CC7CC(C5)CC(C(=O)N5CCN(c8ccc(-c9ccc%10cc9CNC(=O)[C@@H]9CCCN9[C@H](C(=O)NC(C)(C)C)[C@H](C)NC(=O)[C@H]([C@@H](C)O)NC(=O)[C@H](CC(=O)O)NC(=O)[C@H](CC(C)C)NC%10=O)cc8)CC5)(C7)C6)CC4)cc3)c(c2)CNC(=O)[C@@H]2CCCN2[C@H](C(=O)NC(C)(C)C)[C@H](C)NC(=O)[C@H]([C@@H](C)O)NC(=O)[C@H](CC(=O)O)NC1=O [Compound 460]
IC50 [1]: 14 nM
ELISA Assay Ratio β1/β7 [2]: 0.1
IC50 [2]: 1 nM
IC50 [3]: 1850 nM
Ratio Ramos/RPMI [3]: 30

CC(C)C[C@@H]1NC(=O)c2ccc(-c3ccc(N4CCN(C(=O)C[C@@H](N)C(=O)N5CCN(c6ccc(-c7ccc8cc7CNC(=O)[C@@H]7CCCN7[C@H](C(=O)NC(C)(C)C)[C@H](C)NC(=O)[C@H]([C@@H](C)O)NC(=O)[C@H](CC(=O)O)NC(=O)[C@H](CC(C)C)NC8=O)cc6)CC5)CC4)cc3)c(c2)CNC(=O)[C@@H]2CCCN2[C@H](C(=O)NC(C)(C)C)[C@H](C)NC(=O)[C@H]([C@@H](C)O)NC(=O)[C@H](CC(=O)O)NC1=O [Compound 493]
IC50 [1]: 12 nM
ELISA Assay Ratio β1/β7 [2]: 0.3
IC50 [2]: 3.5 nM
IC50 [3]: 1250 nM
Ratio Ramos/RPMI [3]: 28

COc1cc(C(=O)N2CCN(c3ccc(-c4ccc5cc4CNC(=O)[C@@H]4CCCN4[C@H](C(=O)NC(C)(C)C)[C@H](C)NC(=O)[C@H]([C@@H](C)O)NC(=O)[C@H](CC(=O)O)NC(=O)[C@H](CC(C)C)NC5=O)cc3)CC2)cc(-c2ccc(C(=O)N3CCN(c4ccc(-c5ccc6cc5CNC(=O)[C@@H]5CCCN5[C@H](C(=O)NC(C)(C)C)[C@H](C)NC(=O)[C@H]([C@@H](C)O)NC(=O)[C@H](CC(=O)O)NC(=O)[C@H](CC(C)C)NC6=O)cc4)CC3)cc2F)c1 [Compound 464]
IC50 [1]: 61 nM
IC50 [2]: 22 nM
IC50 [3]: 1550 nM

CC(C)C[C@@H]1NC(=O)c2ccc(-c3ccc(N4CCN(c5ncc([N+](=O)[O-])c(N6CCN(c7ccc(-c8ccc9cc8CNC(=O)[C@@H]8CCCN8[C@H](C(=O)NC(C)(C)C)[C@H](C)NC(=O)[C@H]([C@@H](C)O)NC(=O)[C@H](CC(=O)O)NC(=O)[C@H](CC(C)C)NC9=O)cc7)CC6)n5)CC4)cc3)c(c2)CNC(=O)[C@@H]2CCCN2[C@H](C(=O)NC(C)(C)C)[C@H](C)NC(=O)[C@H]([C@@H](C)O)NC(=O)[C@H](CC(=O)O)NC1=O [Compound 468]
IC50 [1]: 32 nM
ELISA Assay Ratio β1/β7 [2]: 0.3
IC50 [2]: 10 nM
IC50 [3]: 677 nM
Ratio Ramos/RPMI [3]: 51

CC(C)C[C@@H]1NC(=O)c2ccc(-c3ccc(N4CCN(C(=O)CCCCCCCCCCC(=O)N5CCN(c6ccc(-c7ccc8cc7CNC(=O)[C@@H]7CCCN7[C@H](C(=O)NC(C)(C)C)[C@H](C)NC(=O)[C@H]([C@@H](C)O)NC(=O)[C@H](CC(=O)O)NC(=O)[C@H](CC(C)C)NC8=O)cc6)CC5)CC4)cc3)c(c2)CNC(=O)[C@@H]2CCCN2[C@H](C(=O)NC(C)(C)C)[C@H](C)NC(=O)[C@H]([C@@H](C)O)NC(=O)[C@H](CC(=O)O)NC1=O [Compound 392]
IC50 [1]: 18 nM
ELISA Assay Ratio β1/β7 [2]: 0.3
IC50 [2]: 6.3 nM
IC50 [3]: 1840 nM
Ratio Ramos/RPMI [3]: 65

CC(C)C[C@@H]1NC(=O)c2ccc(-c3ccc(N4CCN(Cc5ccc(CN6CCN(c7ccc(-c8ccc9cc8CNC(=O)[C@@H]8CCCN8[C@H](C(=O)NC(C)(C)C)[C@H](C)NC(=O)[C@H]([C@@H](C)O)NC(=O)[C@H](CC(=O)O)NC(=O)[C@H](CC(C)C)NC9=O)cc7)CC6)cc5)CC4)cc3)c(c2)CNC(=O)[C@@H]2CCCN2[C@H](C(=O)NC(C)(C)C)[C@H](C)NC(=O)[C@H]([C@@H](C)O)NC(=O)[C@H](CC(=O)O)NC1=O [Compound 500]
IC50 [1]: 12 nM
ELISA Assay Ratio β1/β7 [2]: 0.8
IC50 [2]: 9.9 nM
IC50 [3]: 1000 nM
Ratio Ramos/RPMI [3]: 31

CC(C)C[C@@H]1NC(=O)c2ccc(-c3ccc(N4CCN(C(=O)COCC(=O)N5CCN(c6ccc(-c7ccc8cc7CNC(=O)[C@@H]7CCCN7[C@H](C(=O)NC(C)(C)C)[C@H](C)NC(=O)[C@H]([C@@H](C)O)NC(=O)[C@H](CC(=O)O)NC(=O)[C@H](CC(C)C)NC8=O)cc6)CC5)CC4)cc3)c(c2)CNC(=O)[C@@H]2CCCN2[C@H](C(=O)NC(C)(C)C)[C@H](C)NC(=O)[C@H]([C@@H](C)O)NC(=O)[C@H](CC(=O)O)NC1=O [Compound 390]
IC50 [1]: 8.3 nM
ELISA Assay Ratio β1/β7 [2]: 0.2
IC50 [2]: 2 nM
IC50 [3]: 857 nM
Ratio Ramos/RPMI [3]: 66

CC(C)C[C@@H]1NC(=O)c2ccc(-c3ccc(N4CCN(C(=O)[C@H](CCCCNC(=O)CCCCCC(=O)NCCCC[C@H](NC(=O)OCc5ccccc5)C(=O)N5CCN(c6ccc(-c7ccc8cc7CNC(=O)[C@@H]7CCCN7[C@H](C(=O)NC(C)(C)C)[C@H](C)NC(=O)[C@H]([C@@H](C)O)NC(=O)[C@H](CC(=O)O)NC(=O)[C@H](CC(C)C)NC8=O)cc6)CC5)NC(=O)OCc5ccccc5)CC4)cc3)c(c2)CNC(=O)[C@@H]2CCCN2[C@H](C(=O)NC(C)(C)C)[C@H](C)NC(=O)[C@H]([C@@H](C)O)NC(=O)[C@H](CC(=O)O)NC1=O [Compound 498]
IC50 [1]: 12 nM
IC50 [2]: 3 nM
IC50 [3]: 1360 nM

CC(C)C[C@@H]1NC(=O)c2ccc(-c3ccc(N4CCN(CC(=O)N5CCN(c6ccc(-c7ccc8cc7CNC(=O)[C@@H]7CCCN7[C@H](C(=O)NC(C)(C)C)[C@H](C)NC(=O)[C@H]([C@@H](C)O)NC(=O)[C@H](CC(=O)O)NC(=O)[C@H](CC(C)C)NC8=O)cc6)CC5)CC4)cc3)c(c2)CNC(=O)[C@@H]2CCCN2[C@H](C(=O)NC(C)(C)C)[C@H](C)NC(=O)[C@H]([C@@H](C)O)NC(=O)[C@H](CC(=O)O)NC1=O [Compound 481]
IC50 [1]: 7.1 nM
ELISA Assay Ratio β1/β7 [2]: 0.2
IC50 [2]: 1.6 nM
IC50 [3]: 940 nM
Ratio Ramos/RPMI [3]: 26

CC(C)C[C@@H]1NC(=O)c2ccc(-c3ccc(N4CCN(C(=O)CCOCCOCCOCCOCCOCCOCCOCCOCCOCCOCCC(=O)N5CCN(c6ccc(-c7ccc8cc7CNC(=O)[C@@H]7CCCN7[C@H](C(=O)NC(C)(C)C)[C@H](C)NC(=O)[C@H]([C@@H](C)O)NC(=O)[C@H](CC(=O)O)NC(=O)[C@H](CC(C)C)NC8=O)cc6)CC5)CC4)cc3)c(c2)CNC(=O)[C@@H]2CCCN2[C@H](C(=O)NC(C)(C)C)[C@H](C)NC(=O)[C@H]([C@@H](C)O)NC(=O)[C@H](CC(=O)O)NC1=O [Compound 511]
IC50 [1]: 11 nM
ELISA Assay Ratio β1/β7 [2]: 0.6
IC50 [2]: 7.2 nM
IC50 [3]: 3990 nM
Ratio Ramos/RPMI [3]: 133

CC(C)C[C@@H]1NC(=O)C[C@H](CCCCN)N(C)C(=O)[C@H](CCCCNC(=O)CCCCCC(=O)NCCCC[C@@H]2NC(=O)[C@@H]3CCCN3[C@H](C(=O)NC(C)(C)C)[C@H](C)NC(=O)[C@H]([C@@H](C)O)NC(=O)[C@H](CC(=O)O)NC(=O)[C@H](CC(C)C)NC(=O)C[C@H](CCCCN)N(C)C2=O)NC(=O)[C@@H]2CCCN2[C@H](C(=O)NC(C)(C)C)[C@H](C)NC(=O)[C@H]([C@@H](C)O)NC(=O)[C@H](CC(=O)O)NC1=O [Compound 532]
IC50 [1]: 6.1 nM
IC50 [2]: 6.9 nM
IC50 [3]: 7150 nM
